Where “and” joins values, the source holds several entries; their conditions need not be identical. Equal values may be shown once. Residues, ends and D or L forms follow the SMILES beside them. No end group written: not given here. *: point of attachment. X1 = O=C(O)CN1CCN(CC(=O)O)CCN(C(CCC(=O)NCCN2C(=O)CC(*)C2=O)C(=O)O)CC1
Legend:
[1] = In vitro plasma stability; assay type: in vitro ADME, human; settings: 37°C, 1 hour time point, RP-HPLC, means from three experiments
Method: The stability of peptides in blood is often limited as they are rapidly cleaved by catalytic enzymes found in tissue and blood, resulting in a short biological half-life. […] To verify whether the FnBPA5 peptide can be used for in vivo applications, we next performed a plasma stability test. The metabolic stability of the peptide radiotracer ^111In-FnBPA5 was tested in vitro by incubating the radiolabeled FnBPA5 at 37°C with human blood plasma, or water as control. The unbound peptide fraction was separated from the plasma proteins at different time points (0, 1, 24, 48, and 72 h) and was analyzed by reversed-phase high-pressure liquid chromatography (RP-HPLC).
After that, the samples were filtrated using a Thomson Single StEP Filter vial 0.45 μm PVDF (Thomson Instrument Company, Oceanside, USA) and the supernatant was analyzed by reversed-phase HPLC (Varian Prostar HPLC System, SpectraLab Scientific Inc., Canada) using a D-Bio Discovery Wide Pore C18 column (25 cm × 4.6 mm; 5 μm).

[2] = Biodistribution in PC-3 tumor grafted mice; assay type: in vivo, mouse; settings: female, CD1 nude, mouse, in vivo, iv, total radioactivity; 1 h p.i.; PC-3 grafted mice, i.v. 150 kBq (2.4 nmol, 100 µL PBS), γ counter, mean ± SD, n = 4; read-out: Biodistribution, Kidneys
Method: (§1) Experiments were performed 3–4 weeks after inoculation.
(§2) For the biodistribution experiments, PC-3 tumor grafted mice were injected into the tail vein with 150 kBq ^111In-FnBPA5 or ^111In-scrambled FnBPA5 (2.4 nmol, 100 µL PBS). For each peptide, groups of four mice were sacrificed at 1, 4, 24, and 96 h post injection. Blocking experiment (n = 4) was performed by injection of an excess of peptide (100 µg, 24 nmol in 100 µL PBS) directly before the administration of the corresponding radiolabeled peptide. The organs were collected, weighed and counted for activity with a γ counter (Packard Cobra II Auto, Gamma, PerkinElmer AG, Schwerzenbach, Switzerland) 4 h p.i. The results were expressed as a percentage of injected activity per gram of tissue (% IA per g tissue). The Student's t test analyses were considered as type 3 (two sample unequal variance) and statistical significance was assumed for p-values smaller than 0.05.

PC-3-bearing mice [3] = assay: Biodistribution in PC-3 tumor grafted mice; assay type: in vivo, mouse; settings: PC-3 grafted mice, i.v. 150 kBq (2.4 nmol, 100 µL PBS), γ counter, mean ± SD, n = 4
Method: as §1, §2

PC-3-bearing mice [4] = assay: In vivo blocking experiment in PC-3 tumor grafted mice; parameters: species or system mouse; settings: n = 4
Method: as §2

PC-3-bearing mice [5] = assay: SPECT/CT imaging of PC-3-bearing mice; assay type: in vivo, mouse
Method: Thirty-three days from the inoculation of the tumor cells, the mice were intravenously injected with ~15 MBq ^111In-FnBPA5 resp. ^111In-scrambled FnBPA5-NODAGA (2.4 nmol, 100 µL PBS) into the tail vein. […] The images were reconstituted and processed with InVivoScope® software (Bioscan Inc., Washington DC, USA).

[6] = target: Fn fibers in PC-3 xenograft tumor tissue of CD1 nude mice (not stated (human PC-3 xenograft in CD1 nude mouse)) (UniProt P11276)
[7] = target: Fn fibers in PC-3 xenograft tumor tissue of CD1 nude mice (not stated (human PC-3 xenograft in CD1 nude mouse)) (UniProt P11276); remark: listed apart in the source
[8] = target: fibronectin N-terminal fragments (Homo sapiens) (UniProt P02751); settings: cited from earlier work
[9] = target: T1, fibronectin isolated from human plasma (human, UniProt P02751 32-2477, in the fibers 5% of the protein was Cy5-labeled (Cy5-maleimide on the cryptic cysteines at FnIII7 and FnIII15)); assay: fluorescence polarisation; anisotropy titration; 100 nM Alexa-488 labeled peptide in PBS, Fn titrated from 0 to 1.4 μM, 20 °C; one-site-binding model; three independent measurements; settings: both partners purified
[10] = target: T1, fibronectin isolated from human plasma; assay: single Fn fiber binding assay (confocal microscopy, intensity ratio peptide-Alexa488 / Fn-Cy5); Fn fibers (95% unlabeled, 5% Cy5-labeled) manually pulled onto a silicone sheet and relaxed to about 7% strain; blocked with BSA; varying concentrations of peptide for 1 h, washed, imaged; ratio at 10 μM set to 1; settings: both partners purified
[11] = 4h p.i. blocking: corresponding unlabeled peptide (24 nmol) i.v. directly before the radiolabeled peptide, PC-3 grafted mice, mean ± SD

Fn fibers in PC-3 xenograft tumor tissue of CD1 nude mice (not stated (human PC-3 xenograft in CD1 nude mouse)), sequence (P11276 33-2477): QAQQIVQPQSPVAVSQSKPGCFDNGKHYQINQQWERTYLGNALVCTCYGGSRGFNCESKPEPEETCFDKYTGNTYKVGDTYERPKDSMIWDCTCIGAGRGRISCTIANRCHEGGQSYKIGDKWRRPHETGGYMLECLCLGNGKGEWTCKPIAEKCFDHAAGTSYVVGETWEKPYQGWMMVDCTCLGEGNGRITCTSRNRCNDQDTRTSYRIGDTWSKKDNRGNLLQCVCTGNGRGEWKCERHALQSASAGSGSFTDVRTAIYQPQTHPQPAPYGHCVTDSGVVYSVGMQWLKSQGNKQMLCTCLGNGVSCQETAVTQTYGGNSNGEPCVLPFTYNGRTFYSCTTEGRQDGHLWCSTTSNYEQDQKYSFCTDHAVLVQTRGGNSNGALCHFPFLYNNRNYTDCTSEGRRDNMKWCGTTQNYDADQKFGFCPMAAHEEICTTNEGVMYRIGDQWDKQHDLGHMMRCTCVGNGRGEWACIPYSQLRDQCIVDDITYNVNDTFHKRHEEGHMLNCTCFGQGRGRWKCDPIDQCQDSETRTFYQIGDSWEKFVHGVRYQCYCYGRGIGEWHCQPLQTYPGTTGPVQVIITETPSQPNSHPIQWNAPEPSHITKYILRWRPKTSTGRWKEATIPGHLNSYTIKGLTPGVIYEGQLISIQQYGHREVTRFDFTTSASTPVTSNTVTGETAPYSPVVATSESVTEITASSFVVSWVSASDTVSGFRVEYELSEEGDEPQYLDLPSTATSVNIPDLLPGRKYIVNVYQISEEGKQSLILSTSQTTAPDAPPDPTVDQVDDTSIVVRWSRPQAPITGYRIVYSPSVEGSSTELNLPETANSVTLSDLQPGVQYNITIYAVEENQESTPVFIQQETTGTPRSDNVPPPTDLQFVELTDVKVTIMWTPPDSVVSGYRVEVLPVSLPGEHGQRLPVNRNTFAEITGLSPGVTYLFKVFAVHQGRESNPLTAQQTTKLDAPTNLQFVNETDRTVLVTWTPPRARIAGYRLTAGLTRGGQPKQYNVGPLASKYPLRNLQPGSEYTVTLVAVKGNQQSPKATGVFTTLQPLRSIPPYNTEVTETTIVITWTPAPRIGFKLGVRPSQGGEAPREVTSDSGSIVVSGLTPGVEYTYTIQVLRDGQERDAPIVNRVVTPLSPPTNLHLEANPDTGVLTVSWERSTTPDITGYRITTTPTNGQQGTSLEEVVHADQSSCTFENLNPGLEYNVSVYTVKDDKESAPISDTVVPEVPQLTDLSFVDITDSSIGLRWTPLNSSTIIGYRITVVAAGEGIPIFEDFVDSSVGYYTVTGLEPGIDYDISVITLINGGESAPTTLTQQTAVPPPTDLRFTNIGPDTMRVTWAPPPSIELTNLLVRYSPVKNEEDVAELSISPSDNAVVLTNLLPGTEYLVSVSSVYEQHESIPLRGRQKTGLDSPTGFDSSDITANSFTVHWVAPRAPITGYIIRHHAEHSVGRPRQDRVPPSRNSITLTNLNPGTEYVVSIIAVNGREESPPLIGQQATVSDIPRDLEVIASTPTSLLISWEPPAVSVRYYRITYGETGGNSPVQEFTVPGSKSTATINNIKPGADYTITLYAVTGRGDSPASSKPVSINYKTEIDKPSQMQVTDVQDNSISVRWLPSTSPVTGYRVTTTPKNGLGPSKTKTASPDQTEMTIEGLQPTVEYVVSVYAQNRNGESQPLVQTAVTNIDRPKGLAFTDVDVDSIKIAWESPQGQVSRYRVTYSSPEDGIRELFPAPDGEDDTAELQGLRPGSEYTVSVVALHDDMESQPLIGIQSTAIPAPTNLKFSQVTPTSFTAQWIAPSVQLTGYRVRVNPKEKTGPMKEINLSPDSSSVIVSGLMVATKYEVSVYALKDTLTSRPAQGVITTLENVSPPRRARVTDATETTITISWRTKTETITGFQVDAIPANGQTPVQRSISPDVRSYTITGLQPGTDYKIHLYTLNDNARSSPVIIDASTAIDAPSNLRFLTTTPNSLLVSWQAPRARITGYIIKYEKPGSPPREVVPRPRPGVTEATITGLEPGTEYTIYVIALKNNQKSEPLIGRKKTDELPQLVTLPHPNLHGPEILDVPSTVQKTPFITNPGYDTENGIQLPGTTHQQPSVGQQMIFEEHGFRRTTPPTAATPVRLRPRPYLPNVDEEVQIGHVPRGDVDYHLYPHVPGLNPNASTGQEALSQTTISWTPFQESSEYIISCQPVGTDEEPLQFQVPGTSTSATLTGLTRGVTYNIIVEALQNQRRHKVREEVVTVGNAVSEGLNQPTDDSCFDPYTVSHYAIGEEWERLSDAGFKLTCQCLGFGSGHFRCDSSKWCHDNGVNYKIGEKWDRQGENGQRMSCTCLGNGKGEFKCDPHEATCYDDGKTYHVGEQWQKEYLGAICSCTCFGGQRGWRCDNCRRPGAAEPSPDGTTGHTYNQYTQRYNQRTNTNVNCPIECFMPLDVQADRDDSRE
fibronectin N-terminal fragments (Homo sapiens), sequence (P02751 50-273): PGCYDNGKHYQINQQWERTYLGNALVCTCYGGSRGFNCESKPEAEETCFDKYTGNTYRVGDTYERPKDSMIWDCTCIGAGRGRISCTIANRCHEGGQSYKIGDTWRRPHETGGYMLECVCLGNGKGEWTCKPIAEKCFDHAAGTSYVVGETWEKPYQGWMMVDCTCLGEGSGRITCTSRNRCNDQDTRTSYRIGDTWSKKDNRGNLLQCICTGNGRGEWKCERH
FnBPA5, sequence (P14738 636-672): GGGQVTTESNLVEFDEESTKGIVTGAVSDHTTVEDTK

CC[C@H](C)[C@H](NC(=O)[C@@H](NC(=O)[C@H](CCC(=O)O)NC(=O)CNC(=O)[C@H](Cc1ccccc1)NC(=O)[C@H](CC(=O)O)NC(=O)[C@@H](NC(=O)[C@H](CCCCN)NC(=O)[C@@H](NC(=O)CNC(=O)[C@@H](NC(=O)[C@H](CC(C)C)NC(=O)[C@H](CC(=O)O)NC(=O)[C@H](CCC(=O)O)NC(=O)[C@H](CCC(N)=O)NC(=O)[C@H](CCC(=O)O)NC(=O)[C@H](CO)NC(=O)CNC(=O)[C@@H](N)CSC1CC(=O)N(CCNC(=O)CCC(C(=O)O)N2CCN(CC(=O)O)CCN(CC(=O)O)CC2)C1=O)[C@@H](C)O)[C@@H](C)O)C(C)C)[C@@H](C)O)C(=O)N[C@H](C(=O)N[C@H](C(=O)N[C@@H](CC(N)=O)C(=O)N[C@@H](CCC(=O)O)C(=O)N[C@@H](C)C(=O)N[C@H](C(=O)N[C@@H](CCC(=O)O)C(=O)N[C@H](C(=O)N[C@H](C(=O)N[C@H](C(=O)N[C@@H](CO)C(=O)NCC(=O)N[C@@H](CO)C(=O)N[C@H](C(=O)N[C@@H](Cc1c[nH]cn1)C(=O)NCC(=O)N[C@H](C(=O)N[C@@H](CCCCN)C(=O)N[C@H](C(=O)O)C(C)C)[C@@H](C)O)[C@@H](C)O)[C@@H](C)O)C(C)C)[C@@H](C)O)[C@@H](C)O)C(C)C)C(C)C (stereo partly drawn) [111In-scrambled FnBPA5, metal not drawn] (H-C(X1)GSEQEDLTGTKVDFGETIVVNEATETVTSGSTHGTKV-OH; N-terminus and C-terminus assumed)
stability in human blood plasma [1]: high stability | tissue uptake at 1 h [2]: 163 ± 18 %ID/g | Biodistribution, Blood (PC-3-bearing mice [3]; 1 h p.i.): 0.26 ± 0.064 IA% / g | Biodistribution, Bone (PC-3-bearing mice [3]; 1 h p.i.): 0.15 ± 0.035 IA% / g | Biodistribution, Heart (PC-3-bearing mice [3]; 1 h p.i.): 0.12 ± 0.03 IA% / g | Biodistribution, Intestines (PC-3-bearing mice [3]; 1 h p.i.): 0.09 ± 0.01 IA% / g | Biodistribution, Kidneys (PC-3-bearing mice [3]; 1 h p.i.): 163.70 ± 18.90 IA% / g | Biodistribution, Liver (PC-3-bearing mice [3]; 1 h p.i.): 0.10 ± 0.02 IA% / g | Biodistribution, Lung (PC-3-bearing mice [3]; 1 h p.i.): 0.19 ± 0.03 IA% / g | Biodistribution, Muscle (PC-3-bearing mice [3]; 1 h p.i.): 0.09 ± 0.025 IA% / g | Biodistribution, Pancreas (PC-3-bearing mice [3]; 1 h p.i.): 0.78 ± 0.295 IA% / g | Biodistribution, Spleen (PC-3-bearing mice [3]; 1 h p.i.): 0.21 ± 0.039 IA% / g | Biodistribution, Stomach (PC-3-bearing mice [3]; 1 h p.i.): 0.12 ± 0.013 IA% / g | Biodistribution, Tumor (PC-3-bearing mice [3]; 1 h p.i.): 0.27 ± 0.08 IA% / g | Biodistribution, Blood (PC-3-bearing mice [3]; 4 h p.i.): 0.07 ± 0.008 IA% / g and 0.07 ± 0.01 IA% / g | Biodistribution, Bone (PC-3-bearing mice [3]; 4 h p.i.): 0.10 ± 0.01 IA% / g | Biodistribution, Heart (PC-3-bearing mice [3]; 4 h p.i.): 0.06 ± 0.006 IA% / g | Biodistribution, Intestines (PC-3-bearing mice [3]; 4 h p.i.): 0.04 ± 0.012 IA% / g and 0.04 ± 0.01 IA% / g | Biodistribution, Kidneys (PC-3-bearing mice [3]; 4 h p.i.): 151.43 ± 9.056 IA% / g and 151.43 ± 9.06 IA% / g | Biodistribution, Liver (PC-3-bearing mice [3]; 4 h p.i.): 0.08 ± 0.026 IA% / g and 0.08 ± 0.03 IA% / g | Biodistribution, Lung (PC-3-bearing mice [3]; 4 h p.i.): 0.08 ± 0.005 IA% / g and 0.08 ± 0.01 IA% / g | Biodistribution, Muscle (PC-3-bearing mice [3]; 4 h p.i.): 0.04 ± 0.019 IA% / g and 0.04 ± 0.02 IA% / g | Biodistribution, Pancreas (PC-3-bearing mice [3]; 4 h p.i.): 0.64 ± 0.549 IA% / g and 0.64 ± 0.55 IA% / g | Biodistribution, Spleen (PC-3-bearing mice [3]; 4 h p.i.): 0.13 ± 0.036 IA% / g and 0.13 ± 0.03 IA% / g | Biodistribution, Stomach (PC-3-bearing mice [3]; 4 h p.i.): 0.06 ± 0.006 IA% / g | Biodistribution, Tumor (PC-3-bearing mice [3]; 4 h p.i.): 0.14 ± 0.02 IA% / g | Biodistribution, Blood (PC-3-bearing mice [3]; 24 h p.i.): 0.04 ± 0.005 IA% / g | Biodistribution, Bone (PC-3-bearing mice [3]; 24 h p.i.): 0.09 ± 0.021 IA% / g | Biodistribution, Heart (PC-3-bearing mice [3]; 24 h p.i.): 0.04 ± 0.005 IA% / g | Biodistribution, Intestines (PC-3-bearing mice [3]; 24 h p.i.): 0.03 ± 0.00 IA% / g | Biodistribution, Kidneys (PC-3-bearing mice [3]; 24 h p.i.): 104.62 ± 9.412 IA% / g | Biodistribution, Liver (PC-3-bearing mice [3]; 24 h p.i.): 0.07 ± 0.010 IA% / g | Biodistribution, Lung (PC-3-bearing mice [3]; 24 h p.i.): 0.05 ± 0.006 IA% / g | Biodistribution, Muscle (PC-3-bearing mice [3]; 24 h p.i.): 0.08 ± 0.026 IA% / g | Biodistribution, Pancreas (PC-3-bearing mice [3]; 24 h p.i.): 0.21 ± 0.162 IA% / g | Biodistribution, Spleen (PC-3-bearing mice [3]; 24 h p.i.): 0.14 ± 0.048 IA% / g | Biodistribution, Stomach (PC-3-bearing mice [3]; 24 h p.i.): 0.04 ± 0.017 IA% / g | Biodistribution, Tumor (PC-3-bearing mice [3]; 24 h p.i.): 0.09 ± 0.01 IA% / g | Biodistribution, Blood (PC-3-bearing mice [3]; 96 h p.i.): 0.02 ± 0.005 IA% / g | Biodistribution, Bone (PC-3-bearing mice [3]; 96 h p.i.): 0.13 ± 0.036 IA% / g | Biodistribution, Heart (PC-3-bearing mice [3]; 96 h p.i.): 0.04 ± 0.005 IA% / g | Biodistribution, Intestines (PC-3-bearing mice [3]; 96 h p.i.): 0.02 ± 0.010 IA% / g | Biodistribution, Kidneys (PC-3-bearing mice [3]; 96 h p.i.): 23.63 ± 9.883 IA% / g | Biodistribution, Liver (PC-3-bearing mice [3]; 96 h p.i.): 0.05 ± 0.005 IA% / g | Biodistribution, Lung (PC-3-bearing mice [3]; 96 h p.i.): 0.04 ± 0.014 IA% / g | Biodistribution, Muscle (PC-3-bearing mice [3]; 96 h p.i.): 0.04 ± 0.013 IA% / g | Biodistribution, Pancreas (PC-3-bearing mice [3]; 96 h p.i.): 0.06 ± 0.016 IA% / g | Biodistribution, Spleen (PC-3-bearing mice [3]; 96 h p.i.): 0.10 ± 0.029 IA% / g | Biodistribution, Stomach (PC-3-bearing mice [3]; 96 h p.i.): 0.04 ± 0.029 IA% / g | Biodistribution, Tumor (PC-3-bearing mice [3]; 96 h p.i.): 0.16 ± 0.08 IA% / g | effect of pre-injection of unlabeled peptide on accumulation (PC-3-bearing mice [4]; 24 nmol unlabeled peptide pre-injected, 4 h p.i., Student's t test): no significant differences | Biodistribution with blocking, Blood (PC-3-bearing mice [4]; [11]): 0.07 ± 0.01 IA% / g | Biodistribution with blocking, Intestines (PC-3-bearing mice [4]; [11]): 0.07 ± 0.05 IA% / g | Biodistribution with blocking, Kidneys (PC-3-bearing mice [4]; [11]): 128.81 ± 17.44 IA% / g | Biodistribution with blocking, Liver (PC-3-bearing mice [4]; [11]): 0.08 ± 0.01 IA% / g | Biodistribution with blocking, Lung (PC-3-bearing mice [4]; [11]): 0.10 ±0.03 IA% / g | Biodistribution with blocking, Muscle (PC-3-bearing mice [4]; [11]): 0.04 ± 0.00 IA% / g | Biodistribution with blocking, Pancreas (PC-3-bearing mice [4]; [11]): 1.41 ±1.25 IA% / g | Biodistribution with blocking, Spleen (PC-3-bearing mice [4]; [11]): 0.18 ± 0.03 IA% / g | Biodistribution with blocking, Stomach (PC-3-bearing mice [4]; [11]): 0.08 ± 0.04 IA% / g | Biodistribution with blocking, Tumor (PC-3-bearing mice [4]; [11]): 0.14 ± 0.04 IA% / g | SPECT/CT distribution (PC-3-bearing mice [5]; ~15 MBq (2.4 nmol, 100 µL PBS) i.v., up to 96 h p.i.): mainly accumulated in the kidneys | SPECT/CT distribution after kidney removal (PC-3-bearing mice [5]; ~15 MBq i.v., 96 h p.i., post mortem, kidneys removed): no uptake was visible

^natIn-FnBPA5 (cold labeled) / ^111In-FnBPA5 (peptide)
tumor uptake of ^111In-FnBPA5 in PC-3-bearing mice, biodistribution at 1, 4, 24 and 96 h p.i. (maximum at 1 h p.i.) [6]: 4.74 % IA per g | change of ^111In-FnBPA5 uptake in the liver 4 h p.i. after pre-injection of a 10-fold excess of unlabeled FnBPA5 (24 nmol) [7]: -58.2% | change of ^111In-FnBPA5 uptake in the tumor 4 h p.i. after pre-injection of a 10-fold excess of unlabeled FnBPA5 (24 nmol) [7]: -35.6%

FnBPA5 (from UniProt P14738)
Kd [8]: 0.0442 µM

{C(Alexa488)}-GQVTTESNLVEFDEESTKGIVTGAVSDHTTVEDTK [FnBPA5-Alexa488]
Kd [9]: 0.075 µM | Kd [10]: 0.028 µM
